The record followed here is publication PMC11829042, “Proteasomes accumulate in the plant apoplast where they participate in microbe-associated molecular pattern (MAMP)-triggered pathogen defense” (Nature Communications, 2025).

Each structure is given as a SMILES string.

For assay [1], the target named is T1, 20S proteasome core particle, PBE1(β5) subunit (chymotrypsin-like activity) (Arabidopsis thaliana, UniProt O23717).
T1 construct: native proteasomes in leaf crude lysate and apoplastic fluid; with other subunits of the assembled 20S core particle
T1 sequence (O23717 58-274): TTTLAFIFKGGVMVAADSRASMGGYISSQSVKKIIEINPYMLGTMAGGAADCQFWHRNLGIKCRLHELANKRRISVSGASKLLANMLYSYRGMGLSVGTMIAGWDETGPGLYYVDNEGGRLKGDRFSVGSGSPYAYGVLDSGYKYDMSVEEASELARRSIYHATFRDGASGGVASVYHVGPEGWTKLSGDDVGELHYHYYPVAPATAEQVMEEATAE
The assay is described as follows: Suc-LLVY-AMC cleavage in leaf lysate and APF, […]. The assay is classed as cell-based.

Assay [2] addresses T2, 20S proteasome core particle, PBE1(β5) subunit (chymotrypsin-like activity) (Arabidopsis thaliana, UniProt O23717).
T2 construct: with other subunits of the assembled 20S core particle (PAG1(α7)-FLAG)
T2 sequence (O23717 58-274): T1 sequence (O23717 58-274)
T2 sequence (O23715 2-249 partner): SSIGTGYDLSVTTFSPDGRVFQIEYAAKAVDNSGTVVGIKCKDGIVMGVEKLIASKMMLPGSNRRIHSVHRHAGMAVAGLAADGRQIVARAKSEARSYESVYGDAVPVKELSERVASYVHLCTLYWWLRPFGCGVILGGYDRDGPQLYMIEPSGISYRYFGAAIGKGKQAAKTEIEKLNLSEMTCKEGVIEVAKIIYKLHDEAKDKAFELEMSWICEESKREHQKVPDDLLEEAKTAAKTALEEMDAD
The assay is described as follows: Suc-LLVY-AMC fluorogenic peptidase assay with […] SylA, affinity-purified proteasomes. Format: biochemical.

`CC(C)C[C@H](NC(=O)[C@H](Cc1ccccc1)NC(=O)c1cnccn1)B(O)O` [BTZ, 1R-3-methyl-1-2S-3-phenyl-2-pyrazin-2-carbonylamino propanoyl amino butyl boronic acid]: the “Suc-LLVY-AMC cleavage in leaf lysate and APF, 50 μM” value in assay [1] is recorded as “Suc-LLVY-AMC breakdown in the CL was strongly suppressed by the well-characterized CP inhibitors bortezomib (BTZ), MG132”.
As to `CC(C)[C@H](NC(=O)N[C@H](C(=O)N[C@H]1/C=C/CCNC(=O)/C=C/[C@H](C(C)C)NC1=O)C(C)C)C(=O)O` [SylA, syringolin-A], the “Suc-LLVY-AMC fluorogenic peptidase assay with 50 or 150 μM SylA, affinity-purifi” value in assay [2] was “not only effectively inhibit the proteolytic activity of affinity-purified Arabidopsis proteasomes and those in the CL”.
